The text below walks through data of US7173004B2, “Macrocyclic isoquinoline peptide inhibitors of hepatitis C virus” (Bristol-Myers Squibb Company, priority 2003, dated 2007).

pIC50: −log10 of the molar value.

The assay has as its target T1, HCV NS3/4A protease complex, BMS strain (genotype 1a) (UniProt P27958, C1454S/C1711G, species not given/STRAIN_BMS).
T1 construct: b1001: DNA encoding the recombinant HCV NS3/4A protease complex (amino acids 1027 to 1711) ... a three-lysine solubilizing tail was added at the 3′-end of the NS4A coding region; fused on or other part: Three-lysine solubilising tail at the C-terminus of NS4A; A His tag is implied by the pET21b vector and Ni-NTA purification
Briefly: Recombinant HCV NS3/4A protease complex FRET peptide assay, BMS strain. The conditions noted are these: NS3/4A BMS strain; activity range symbols. In kind it is biochemical. The gist of the method:
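Recombinant NS3/4A (aa 1027–1711) from H77C, J4L6S or BMS strains, with C1454S and C1711G mutations and three-lysine tail, expressed in E. coli and Ni-NTA/gel-filtration purified to >90%. Inhibition of cleavage of a FRET peptide substrate measured.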
As a reminder, the pIC50 is the negative decadic logarithm of the IC50, by convention in mol/L. In the case of `COC(=O)N1CCC/C=C\[C@@H]2C[C@@]2(C(=O)NS(=O)(=O)C2CC2)NC(=O)[C@@H]2C[C@@H](Oc3nccc4ccccc34)CN2C(=O)[C@@H](NC(=O)OC(C)(C)C)C1` [Compound 148], the pIC50 was more than 7.30.
Take `CCSC(=O)NC1CCCCCC=CC2CC2(C(=O)NS(=O)(=O)C2CC2)NC(=O)C2CC(Oc3nccc4ccccc34)CN2C1=O` (stereo not drawn) [Compound 118]: the pIC50 was more than 7.30.
In the case of `COc1ccc2c(O[C@@H]3C[C@H]4C(=O)N[C@]5(C(=O)NS(=O)(=O)C6CC6)C[C@H]5/C=C\COCC[C@H](NC(=O)OC(C)(C)C)C(=O)N4C3)nccc2c1` [Compound 141, [(Z)-(1S,4R,13S,17R)-4-cyclopropanesulfonylaminocarbonyl-17-(6-methoxy-isoquinolin-1-yloxy)-2,14-dioxo-10-oxa-3,15-diaza-tricyclo[13.3.0.0^4,6]octadec-7-en-13-yl]-carbamic acid tert-butyl ester], the pIC50 was 6.30 to 7.30.
The result for `COc1ccc2c(OC3CC4C(=O)NC5(C(=O)NS(=O)(=O)C6CC6)CC5C=CCCCOCC(NC(=O)OC(C)C)C(=O)N4C3)nccc2c1` (stereo not drawn) [Compound 89] reads more than 7.30.
For `CC(=O)N1CCC/C=C\[C@@H]2C[C@@]2(C(=O)NS(=O)(=O)C2CC2)NC(=O)[C@@H]2C[C@@H](Oc3nccc4ccccc34)CN2C(=O)[C@@H](NC(=O)OC(C)(C)C)C1` [Compound 146], the pIC50 was more than 7.30.
On to `COc1ccc2c(OC3CC4C(=O)NC5(C(=O)NS(=O)(=O)C6CC6)CC5C=CCCCSC(C)(C)C(NC(=O)NC(C)(C)C)C(=O)N4C3)nccc2c1` (stereo not drawn) [Compound 81], for which the pIC50 was more than 7.30.
Turning to `CC(C)(C)NC(=O)N[C@H]1CCCCC/C=C\[C@@H]2C[C@@]2(C(=O)NS(=O)(=O)C2CC2)NC(=O)[C@@H]2C[C@@H](Oc3nccc4ccccc34)CN2C1=O` [Compound 126], the pIC50 was more than 7.30.
In the case of `COc1ccc2c(OC3CC4C(=O)NC5(C(=O)NS(=O)(=O)C6CC6)CC5C=CCOCCCC(NC(=O)OCC(C)(C)C)C(=O)N4C3)nc(-c3ccccc3)cc2c1` (stereo not drawn) [Compound 103], the pIC50 is more than 7.30.
Take `CC(C)(C)OC(=O)N[C@H]1CN(S(=O)(=O)c2ccccc2[N+](=O)[O-])CCC/C=C\[C@@H]2C[C@@]2(C(=O)NS(=O)(=O)C2CC2)NC(=O)[C@@H]2C[C@@H](Oc3nccc4ccccc34)CN2C1=O` [Compound 145]: the pIC50 is more than 7.30.
As to `CC(C)(C)CC(C)(C)NC(=O)NC1CCCCCC=CC2CC2(C(=O)NS(=O)(=O)C2CC2)NC(=O)C2CC(Oc3nccc4ccccc34)CN2C1=O` (stereo not drawn) [Compound 129], the pIC50 was more than 7.30.
In the case of `COc1ccc2c(OC3CC4C(=O)NC5(C(=O)NS(=O)(=O)C6CC6)CC5C=CCOCCCC(NC(=O)N5CCNC5=O)C(=O)N4C3)nc(-c3ccccc3)cc2c1` (stereo not drawn) [Compound 106], the pIC50 is more than 7.30.
Take `CC(C)(C)OC(=O)NC1CCCCCC=CC2CC2(C(=O)NS(=O)(=O)C2CC2)NC(=O)C2CC(Oc3nccc4c(Cl)cccc34)CN2C1=O` (stereo not drawn) [Compound 130]: the pIC50 is more than 7.30.
`CC(C)(C)OC(=O)N[C@H]1CN(S(C)(=O)=O)CCC/C=C\[C@@H]2C[C@@]2(C(=O)NS(=O)(=O)C2CC2)NC(=O)[C@@H]2C[C@@H](Oc3nccc4ccccc34)CN2C1=O` [Compound 153]: the pIC50 was more than 7.30.
Consider `CC(=O)C(C)(C)OC(=O)NC1CCCCCC=CC2CC2(C(=O)NS(=O)(=O)C2CC2)NC(=O)C2CC(Oc3nccc4ccccc34)CN2C1=O` (stereo not drawn) [Compound 123], for which the pIC50 is more than 7.30.
Regarding `CC(C)(C)COC(=O)N1CCCC=CC2CC2(C(=O)NS(=O)(=O)C2CC2)NC(=O)C2CC(Oc3nccc4ccccc34)CN2C(=O)C(NC(=O)OC(C)(C)C)C1` (stereo not drawn) [Compound 149], the negative-log IC50 (pIC50) is more than 7.30.
